This note sets out measurements from ChEMBL document CHEMBL3228008, “Synthesis and some pharmacological properties of 8-L-methionine-oxytocin” (1979).

The structures appear in SMILES notation. Where a SMILES comes first, the peptide text is derived from it. Bridges are numbered along the chain shown (N, C = ends).

Assay [1] is described as follows: Oxytocic activity in virgin rat uterine horns. The assay is classed as functional.
A further assay relates to Gallus gallus. The assay is described as follows: Avian vasodepressor activity in conscious chicken. The assay is classed as functional.
Assay [2] has as its system Rattus norvegicus. The assay is described as follows: Pressor activity in anesthetized rat. The assay is classed as functional.
Assay [3] deals with Rattus norvegicus. The assay is described as follows: Antidiuretic activity in anesthetized rat. The assay is classed as functional, Urine.

In the case of `CC[C@H](C)[C@@H]1NC(=O)[C@H](Cc2ccc(O)cc2)NC(=O)[C@@H](N)CSSC[C@@H](C(=O)N2CCC[C@H]2C(=O)N[C@@H](CCSC)C(=O)NCC(N)=O)NC(=O)[C@H](CC(N)=O)NC(=O)[C@H](CCC(N)=O)NC1=O` (H-CYIQNCPMG-NH2; disulfide 1-6), the Activity in assay [1] amounted to 200 U/mg; in the assay with Gallus gallus it was 193 U/mg; in the assay with Rattus norvegicus [2], 27 U/mg; with Rattus norvegicus [3] it was 0.4 U/mg.
